By MIC is commonly meant the smallest concentration in the dilution series that meets the test's criterion for growth inhibition.

The values that follow come from patent US8754054B2, “Antibacterial compounds, methods of making them, and uses thereof” (Albany Molecular Research, Inc., priority 2010, dated 2014).

Values after ≈ are worked out from the molar mass of the structure shown.

The test system of this test is MRSA 43300. As to the kind of experiment: Antibacterial activity, NCCLS dilution method (Table 9). The format is cell-based, S. aureus. The settings on record: Staphylococcus aureus, MRSA, MRSA 43300; dilution method; labels marked a tested as a mixture of diastereomers; read-out: MRSA 43300 MIC. The source says: NCCLS standards for antimicrobial susceptibility testing using the dilution method were followed. See: Performance Standards for Antimicrobial Susceptibility Testing; Fourteenth Informational Supplement. NCCLS Document M100-S14 (ISBN 1-56238-516-X), 2004. NCCLS, 940 West Valley Road, Suite 1400, Wayne, Pa. 19087-1898 USA, 2004; Methods for Dilution Antimicrobial Susceptibility Tests for Bacteria that Grow Aerobically; Approved Standard—Sixth Edition. NCCLS document M7-A6 (IBSBN 1-56238-486-4), NCCLS, 940 West Valley Road, Suite 1400, Wayne, Pa. 19087-1898 USA, 2003, which are hereby incorporated by reference in their entirety.
Regarding `COC(=O)c1c(C)cc2c(c1O)[C@]1(O)C(=O)c3cc4c(c(O)c3C(=O)[C@]1(OC)[C@H](O)C2)C(=O)C=C(N[C@H]1O[C@@H](C)[C@H](OC)/C(=N/OCCN)[C@H]1OC)C4=O` [Example 52, (6R,6aS,14aR)-Methyl 11-((2S,3R,5R,6S,Z)-4-(2-aminoethoxyimino)-3,5-dimethoxy-6-methyltetrahydro-2H-pyran-2-ylamino)-1,6,8,14a-tetrahydroxy-6a-methoxy-3-methyl-7,9,12,14-tetraoxo-5,6,6a,7,9,12,14,14a-octahydrobenzo[a]tetracene-2-carboxylate], the MIC was 0.12 to 0.25 µg/mL (≈ 0.159 to 0.332 µM).

Consider `COCCC/N=C1\C=C(N[C@H]2O[C@@H](C)[C@H](OC)[C@@H](O)[C@H]2OC)C(=O)c2cc3c(c(O)c21)C(=O)[C@]1(OC)[C@H](O)Cc2cc(C)c(C(=O)OC)c(O)c2[C@]1(O)C3=O` [Example 47, (6R,6aS,14aR,E)-Methyl 1,6,8,14a-tetrahydroxy-11-((2S,3R,4R,5R,6S)-4-hydroxy-3,5-dimethoxy-6-methyltetrahydro-2H-pyran-2-ylamino)-6a-methoxy-9-(3-methoxypropylimino)-3-methyl-7,12,14-trioxo-5,6,6a,7,9,12,14,14a-octahydrobenzo[a]tetracene-2-carboxylate], for which the MIC fell in the range of 1 to 2 µg/mL (≈ 1.3 to 2.6 µM).

On to `COC(=O)c1c(C)cc2c(c1OCC(=O)OCc1ccccc1)[C@]1(O)C(=O)c3cc4c(c(O)c3C(=O)[C@]1(OC)[C@H](O)C2)C(=O)C=C(N[C@H]1O[C@@H](C)[C@H](OC)[C@@H](O)[C@H]1OC)C4=O` [Example 8, (6R,6aS,14aR)-Methyl 1-(2-(benzyloxy)-2-oxoethoxy)-6,8,14a-trihydroxy-11-((2S,3R,4R,5R,6S)-4-hydroxy-3,5-dimethoxy-6-methyltetrahydro-2H-pyran-2-ylamino)-6a-methoxy-3-methyl-7,9,12,14-tetraoxo-5,6,6a,7,9,12,14,14a-octahydrobenzo[a]tetracene-2-carboxylate], for which the minimal inhibitory concentration (MIC) came out at 1 µg/mL (≈ 1.18 µM).

As to `CO[C@@H]1[C@@H](O)[C@@H](OC)C(NC2=CC(=O)c3c(cc4c(c3O)C(=O)[C@]3(OC)[C@H](O)Cc5cc(C)c(C(=O)N6CCCCC6)c(O)c5[C@]3(O)C4=O)C2=O)O[C@H]1C` (mixture of isomers) [Example 21, (6R,6aS,14aR)-1,6,8,14a-Tetrahydroxy-11-((3R,4R,5R,6S)-4-hydroxy-3,5-dimethoxy-6-methyltetrahydro-2H-pyran-2-ylamino)-6a-methoxy-3-methyl-2-(piperidine-1-carbonyl)-6,6a-dihydrobenzo[a]tetracene-7,9,12,14(5H,14aH)-tetraone], the MIC was found to be 1 µg/mL (≈ 1.33 µM).

For the compound `COC(=O)c1c(C)cc2c(c1O)[C@]1(O)C(=O)c3cc4c5c(nc(=O)oc5c3C(=O)[C@]1(OC)[C@H](O)C2)C=C(N[C@H]1O[C@@H](C)[C@H](OC)[C@@H](O)[C@H]1OC)C4=O` [Example 60, (8aR,12R,12aS)-8a,12-Dihydroxy-5-((2S,3R,4R,5R,6S)-4-hydroxy-3,5-dimethoxy-6-methyltetrahydro-2H-pyran-2-ylamino)-12a-methoxy-8a,9,10,11,12,12a-hexahydro-(1-hydroxy-2-methoxycarbonyl-3-methylbenzo) [9,10-a]tetraceno[1,12-de][1,3]oxazine-2,6,8,13-tetraone], the MIC fell in the range of 0.12 to 0.5 µg/mL (≈ 0.166 to 0.692 µM).

In the case of `COC(=O)c1c(C)c(Br)c2c(c1O)[C@]1(O)C(=O)c3cc4c(c(O)c3C(=O)[C@]1(OC)[C@H](O)C2)C(=O)C=C(N[C@H]1O[C@@H](C)[C@H](OC)[C@@H](O)[C@H]1OC)C4=O` [Example 38, (6R,6aS,14aR)-Methyl 4-bromo-1,6,8,14a-tetrahydroxy-11-((2S,3R,4R,5R,6S)-4-hydroxy-3,5-dimethoxy-6-methyltetrahydro-2H-pyran-2-ylamino)-6a-methoxy-3-methyl-7,9,12,14-tetraoxo-5,6,6a,7,9,12,14,14a-octahydrobenzo[a]tetracene-2-carboxylate], the MIC came to 1 µg/mL (≈ 1.29 µM).

As for `CO/N=C1/[C@@H](OC)[C@H](C)O[C@H](NC2=CC(=O)c3c(cc4c(c3O)C(=O)[C@]3(OC)[C@H](O)Cc5cc(C)c(C(=O)OC)c(O)c5[C@]3(O)C4=O)C2=O)[C@@H]1OC` [Example 50, (6R,6aS,14aR)-Methyl 11-((2S,3R,5R,6S,Z)-3,5-dimethoxy-4-(methoxyimino)-6-methyltetrahydro-2H-pyran-2-ylamino)-1,6,8,14a-tetrahydroxy-6a-methoxy-3-methyl-7,9,12,14-tetraoxo-5,6,6a,7,9,12,14,14a-octahydrobenzo[a]tetracene-2-carboxylate], the MIC was 0.25 µg/mL (≈ 0.345 µM).

For `CO[C@@H]1[C@@H](O)[C@@H](OC)C(NC2=CC(=O)c3c(cc4c(c3O)C(=O)[C@]3(OC)[C@H](O)Cc5cc(C)c(C(=O)OCc6ccccc6)c(O)c5[C@]3(O)C4=O)C2=O)O[C@H]1C` (mixture of isomers) [Example 37, (6R,6aS,14aR)-Benzyl 1,6,8,14a-tetrahydroxy-11-((3R,4R,5R,6S)-4-hydroxy-3,5-dimethoxy-6-methyltetrahydro-2H-pyran-2-ylamino)-6a-methoxy-3-methyl-7,9,12,14-tetraoxo-5,6,6a,7,9,12,14,14a-octahydrobenzo[a]tetracene-2-carboxylate], the minimum inhibitory concentration (MIC) is 0.25 µg/mL (≈ 0.323 µM).

For the compound `COC(=O)c1c(C)cc2c(c1O)[C@]1(O)C(=O)c3cc4c(c(O)c3C(=O)[C@]1(OC)[C@H](O)C2)C(=O)C=C(N[C@H]1O[C@@H](C)[C@H](OC)[C@@H](O)[C@H]1OC)C4=O` [Example 2, (6R,6aS,14aR)-methyl 1,6,8,14a-tetrahydroxy-11-((2S,3R,4R,5R,6S)-4-hydroxy-3,5-dimethoxy-6-methyltetrahydro-2H-pyran-2-ylamino)-6a-methoxy-3-methyl-7,9,12,14-tetraoxo-5,6,6a,7,9,12,14,14a-octahydrobenzo[a]tetracene-2-carboxylate], the minimum inhibitory concentration (MIC) was 0.008 µg/mL (≈ 0.0115 µM).

As for `COC(=O)c1c(C)cc2c(c1OCC(=O)O)[C@]1(O)C(=O)c3cc4c(c(O)c3C(=O)[C@]1(OC)[C@H](O)C2)C(=O)C=C(NC1O[C@@H](C)[C@H](OC)[C@@H](O)[C@H]1OC)C4=O` (stereo partly drawn) [Example 9, 2-((6R,6aS,14aR)-6,8,14a-Trihydroxy-11-((3R,4R,5R,6S)-4-hydroxy-3,5-dimethoxy-6-methyltetrahydro-2H-pyran-2-ylamino)-6a-methoxy-2-(methoxycarbonyl)-3-methyl-7,9,12,14-tetraoxo-5,6,6a,7,9,12,14,14a-octahydrobenzo[a]tetracen-1-yloxy)acetic acid], the MIC was 32 µg/mL (≈ 42.3 µM).

`COC(=O)c1c(C)cc2c(c1OCC(=O)N1CCCCC1)[C@]1(O)C(=O)c3cc4c(c(O)c3C(=O)[C@]1(OC)[C@H](O)C2)C(=O)C=C(N[C@H]1O[C@@H](C)[C@H](OC)[C@@H](O)[C@H]1OC)C4=O` [Example 12, (6R,6aS,14aR)-Methyl 6,8,14a-trihydroxy-11-((2S,3R,4R,5R,6S)-4-hydroxy-3,5-dimethoxy-6-methyltetrahydro-2H-pyran-2-ylamino)-6a-methoxy-3-methyl-7,9,12,14-tetraoxo-1-(2-oxo-2-(piperidin-1-yl)ethoxy)-5,6,6a,7,9,12,14,14a-octahydrobenzo[a]tetracene-2-carboxylate]: the MIC lay within 0.25 to 1 µg/mL (≈ 0.304 to 1.22 µM).

Consider `CO[C@@H]1[C@@H](O)[C@@H](OC)[C@@H](NC2=CC(=O)c3c(cc4c(c3O)C(=O)[C@]3(OC)[C@H](O)Cc5cc(C)c(C(N)=O)c(O)c5[C@]3(O)C4=O)C2=O)O[C@H]1C` [Example 20, (6R,6aS,14aR)-1,6,8,14a-Tetrahydroxy-11-((2S,3R,4R,5R,6S)-4-hydroxy-3,5-dimethoxy-6-methyltetrahydro-2H-pyran-2-ylamino)-6a-methoxy-3-methyl-7,9,12,14-tetraoxo-5,6,6a,7,9,12,14,14a-octahydrobenzo[a]tetracene-2-carboxamide], for which the minimum inhibitory concentration (MIC) is 2 µg/mL (≈ 2.93 µM).

Turning to `CO[C@@H]1[C@@H](O)[C@@H](OC)C(NC2=CC(=O)c3c(cc4c(c3O)C(=O)[C@]3(OC)[C@H](O)Cc5cc(C)c(C(=O)NCCO)c(O)c5[C@]3(O)C4=O)C2=O)O[C@H]1C` (mixture of isomers) [Example 24, (6R,6aS,14aR)-1,6,8,14a-Tetrahydroxy-11-((3R,4R,5R,6S)-4-hydroxy-3,5-dimethoxy-6-methyltetrahydro-2H-pyran-2-ylamino)-N-(2-hydroxyethyl)-6a-methoxy-3-methyl-7,9,12,14-tetraoxo-5,6,6a,7,9,12,14,14a-octahydrobenzo[a]tetracene-2-carboxamide], the MIC stood at 32 µg/mL (≈ 44 µM).

Take `CO[C@@H]1[C@@H](O)[C@@H](OC)C(NC2=CC(=O)c3c(cc4c(c3O)C(=O)[C@]3(OC)[C@H](O)Cc5cc(C)c(C(=O)N6CCCC6)c(O)c5[C@]3(O)C4=O)C2=O)O[C@H]1C` (mixture of isomers) [Example 22, (6R,6aS,14aR)-1,6,8,14a-Tetrahydroxy-11-((3R,4R,5R,6S)-4-hydroxy-3,5-dimethoxy-6-methyltetrahydro-2H-pyran-2-ylamino)-6a-methoxy-3-methyl-2-(pyrrolidine-1-carbonyl)-6,6a-dihydrobenzo[a]tetracene-7,9,12,14(5H,14aH)-tetraone]: the MIC was determined as 1 µg/mL (≈ 1.36 µM).

With `COC(=O)c1c(C)cc2c(c1O)[C@]1(O)C(=O)c3cc4c(c(O)c3C(=O)[C@]1(OC)[C@H](O)C2)C(=O)C=C(N[C@H]1O[C@@H](C)[C@H](OC)C(=NO)[C@H]1OC)C4=O` (single isomer, unassigned) [Example 49], the MIC was determined as 0.06 µg/mL (≈ 0.0844 µM).

In the case of `COC(=O)c1c(C)cc2c(c1O)[C@]1(O)C(=O)c3cc4c(c(O)c3C(=O)[C@]1(OC)[C@H](O)C2)/C(=N/CCCO)C=C(N[C@H]1O[C@@H](C)[C@H](OC)[C@@H](O)[C@H]1OC)C4=O` [Example 48, (6R,6aS,14aR,E)-Methyl 1,6,8,14a-tetrahydroxy-11-((2S,3R,4R,5R,6S)-4-hydroxy-3,5-dimethoxy-6-methyltetrahydro-2H-pyran-2-ylamino)-9-(3-hydroxypropylimino)-6a-methoxy-3-methyl-7,12,14-trioxo-5,6,6a,7,9,12,14,14a-octahydrobenzo[a]tetracene-2-carboxylate], the MIC amounted to 1 µg/mL (≈ 1.32 µM).
